Experimental data: PubChem BioAssay (NCI)
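Exposure lasted 48 hours, with cells grown in 96-well plates and compounds tested at five concentrations. GI50 marks 50% less growth. TGI is the concentration that stops growth completely.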

Key:
Assay in all cases: inhibition of tumour cell growth, NCI panel, 48 h
SK-MEL-28 melanoma = test system: SK-MEL-28 melanoma
K-562 leukemia = test system: K-562 leukemia
BT-549 breast = test system: BT-549 breast
HS 578T breast = test system: HS 578T breast
MOLT-4 leukemia = test system: MOLT-4 leukemia
MDA-MB-468 breast = test system: MDA-MB-468 breast
M14 melanoma = test system: M14 melanoma
CCRF-CEM leukemia = test system: CCRF-CEM leukemia
CAKI-1 renal = test system: CAKI-1 renal
IGROV1 ovarian = test system: IGROV1 ovarian
SK-MEL-5 melanoma = test system: SK-MEL-5 melanoma
SF-268 CNS = test system: SF-268 CNS
HL-60(TB) leukemia = test system: HL-60(TB) leukemia
RXF 393 renal = test system: RXF 393 renal
UACC-257 melanoma = test system: UACC-257 melanoma
SK-OV-3 ovarian = test system: SK-OV-3 ovarian
COLO 205 colon = test system: COLO 205 colon
HCT-116 colon = test system: HCT-116 colon
SNB-19 CNS = test system: SNB-19 CNS
SNB-75 CNS = test system: SNB-75 CNS
HCC-2998 colon = test system: HCC-2998 colon
HOP-92 NSCLC = test system: HOP-92 NSCLC
RPMI-8226 leukemia = test system: RPMI-8226 leukemia
HOP-62 NSCLC = test system: HOP-62 NSCLC
SF-295 CNS = test system: SF-295 CNS
NCI/ADR-RES ovarian = test system: NCI/ADR-RES ovarian
U251 CNS = test system: U251 CNS
786-0 renal = test system: 786-0 renal
T-47D breast = test system: T-47D breast
MALME-3M melanoma = test system: MALME-3M melanoma
MDA-MB-231 breast = test system: MDA-MB-231 breast
NCI-H522 lung = test system: NCI-H522 lung
A549 NSCLC = test system: A549 NSCLC
SK-MEL-2 melanoma = test system: SK-MEL-2 melanoma
A498 renal = test system: A498 renal
DU-145 prostate = test system: DU-145 prostate
LOX IMVI melanoma = test system: LOX IMVI melanoma
OVCAR-5 ovarian = test system: OVCAR-5 ovarian
HT29 colon = test system: HT29 colon
OVCAR-4 ovarian = test system: OVCAR-4 ovarian
PC-3 prostate = test system: PC-3 prostate
UO-31 renal = test system: UO-31 renal
KM12 colon = test system: KM12 colon
HCT-15 colon = test system: HCT-15 colon
SW-620 colon = test system: SW-620 colon
NCI-H460 lung = test system: NCI-H460 lung
OVCAR-8 ovarian = test system: OVCAR-8 ovarian
SN12C renal = test system: SN12C renal
MDA-MB-435 = test system: MDA-MB-435
MCF7 breast = test system: MCF7 breast
SF-539 CNS = test system: SF-539 CNS
OVCAR-3 ovarian = test system: OVCAR-3 ovarian
UACC-62 melanoma = test system: UACC-62 melanoma
NCI-H23 lung = test system: NCI-H23 lung
TK-10 renal = test system: TK-10 renal
EKVX NSCLC = test system: EKVX NSCLC
SR leukemia = test system: SR leukemia

COc1ccc(-c2nc3ccc(-c4nnc(SCc5ccccc5)o4)cc3[nH]2)cc1OC
GI50 (SK-MEL-28 melanoma): 22 µM | TGI (SK-MEL-28 melanoma): > 100 µM | GI50 (K-562 leukemia): 28.3 µM | TGI (K-562 leukemia): > 100 µM | GI50 (BT-549 breast): 21.3 µM | TGI (BT-549 breast): > 100 µM | GI50 (HS 578T breast): 3.5 µM | TGI (HS 578T breast): > 100 µM | GI50 (MOLT-4 leukemia): 27.8 µM | TGI (MOLT-4 leukemia): > 100 µM | GI50 (MDA-MB-468 breast): 7.89 µM | TGI (MDA-MB-468 breast): 38.6 µM | GI50 (M14 melanoma): 26.5 µM | TGI (M14 melanoma): > 100 µM | GI50 (CCRF-CEM leukemia): 16.7 µM | TGI (CCRF-CEM leukemia): > 100 µM | GI50 (CAKI-1 renal): > 100 µM | TGI (CAKI-1 renal): > 100 µM | GI50 (IGROV1 ovarian): 36 µM | TGI (IGROV1 ovarian): > 100 µM | GI50 (SK-MEL-5 melanoma): 7.88 µM | TGI (SK-MEL-5 melanoma): > 100 µM | GI50 (SF-268 CNS): 32.7 µM | TGI (SF-268 CNS): > 100 µM | GI50 (HL-60(TB) leukemia): 57.5 µM | TGI (HL-60(TB) leukemia): > 100 µM | GI50 (RXF 393 renal): 3.6 µM | TGI (RXF 393 renal): > 100 µM | GI50 (UACC-257 melanoma): 56.4 µM | TGI (UACC-257 melanoma): > 100 µM | GI50 (SK-OV-3 ovarian): > 100 µM | TGI (SK-OV-3 ovarian): > 100 µM | GI50 (COLO 205 colon): 38 µM | TGI (COLO 205 colon): > 100 µM | GI50 (HCT-116 colon): 8.32 µM | TGI (HCT-116 colon): > 100 µM | GI50 (SNB-19 CNS): > 100 µM | TGI (SNB-19 CNS): > 100 µM | GI50 (SNB-75 CNS): 2.24 µM | TGI (SNB-75 CNS): 7.27 µM | GI50 (HCC-2998 colon): 57 µM | TGI (HCC-2998 colon): > 100 µM | GI50 (HOP-92 NSCLC): 4.17 µM | TGI (HOP-92 NSCLC): 94.6 µM | GI50 (RPMI-8226 leukemia): 21.7 µM | TGI (RPMI-8226 leukemia): > 100 µM | GI50 (HOP-62 NSCLC): 3.88 µM | TGI (HOP-62 NSCLC): 23.2 µM | GI50 (SF-295 CNS): 5.54 µM | TGI (SF-295 CNS): > 100 µM | GI50 (NCI/ADR-RES ovarian): 11.1 µM | TGI (NCI/ADR-RES ovarian): > 100 µM | GI50 (U251 CNS): 4.72 µM | TGI (U251 CNS): 20.4 µM | GI50 (786-0 renal): 5.88 µM | TGI (786-0 renal): 40.2 µM | GI50 (T-47D breast): 8.53 µM | TGI (T-47D breast): > 100 µM | GI50 (MALME-3M melanoma): 3.18 µM | TGI (MALME-3M melanoma): 11.5 µM | GI50 (MDA-MB-231 breast): 4.28 µM | TGI (MDA-MB-231 breast): 23.2 µM | GI50 (NCI-H522 lung): 23 µM | TGI (NCI-H522 lung): > 100 µM | GI50 (A549 NSCLC): 4.8 µM | TGI (A549 NSCLC): > 100 µM | GI50 (SK-MEL-2 melanoma): > 100 µM | TGI (SK-MEL-2 melanoma): > 100 µM | GI50 (A498 renal): > 100 µM | TGI (A498 renal): > 100 µM | GI50 (DU-145 prostate): 9.71 µM | TGI (DU-145 prostate): > 100 µM | GI50 (LOX IMVI melanoma): 4.74 µM | TGI (LOX IMVI melanoma): > 100 µM | GI50 (OVCAR-5 ovarian): 32.4 µM | TGI (OVCAR-5 ovarian): > 100 µM | GI50 (HT29 colon): 16.2 µM | TGI (HT29 colon): > 100 µM | GI50 (OVCAR-4 ovarian): 3.08 µM | TGI (OVCAR-4 ovarian): 12.3 µM | GI50 (PC-3 prostate): 19.8 µM | TGI (PC-3 prostate): > 100 µM | GI50 (UO-31 renal): 57.4 µM | TGI (UO-31 renal): > 100 µM | GI50 (KM12 colon): > 100 µM | TGI (KM12 colon): > 100 µM | GI50 (HCT-15 colon): 13.8 µM | TGI (HCT-15 colon): > 100 µM | GI50 (SW-620 colon): 17 µM | TGI (SW-620 colon): > 100 µM | GI50 (NCI-H460 lung): 5.67 µM | TGI (NCI-H460 lung): > 100 µM | GI50 (OVCAR-8 ovarian): 5.6 µM | TGI (OVCAR-8 ovarian): > 100 µM | GI50 (SN12C renal): 7.15 µM | TGI (SN12C renal): > 100 µM | GI50 (MDA-MB-435): 21 µM | TGI (MDA-MB-435): > 100 µM | GI50 (MCF7 breast): 13.8 µM | TGI (MCF7 breast): > 100 µM | GI50 (SF-539 CNS): 6.54 µM | TGI (SF-539 CNS): > 100 µM | GI50 (OVCAR-3 ovarian): 4.73 µM | TGI (OVCAR-3 ovarian): 88.9 µM | GI50 (UACC-62 melanoma): 7.2 µM | TGI (UACC-62 melanoma): 43.8 µM | GI50 (NCI-H23 lung): 11 µM | TGI (NCI-H23 lung): 79.9 µM | GI50 (TK-10 renal): 8.62 µM | TGI (TK-10 renal): 46.7 µM | GI50 (EKVX NSCLC): 24.9 µM | TGI (EKVX NSCLC): > 100 µM | GI50 (SR leukemia): 6.45 µM | TGI (SR leukemia): > 100 µM
